The target of assay [1] is T1, CK1γ3 (Homo sapiens, UniProt Q9Y6M4).
T1 construct: purchased Eurofins
Description: Eurofins kinase enzymatic radiometric assay, CK1γ3. It is filed as biochemical. The following applies: Km = ATP, 9-pt curve in duplicate. From the text: (§1) Details related to the substrate used, protein constructs, controls, and assay protocol for each kinase assay are included on the Eurofins website: https://www.eurofinsdiscoveryservices.com/.

Assay [2] addresses T2, CK1γ2 (Homo sapiens, UniProt P78368).
T2 construct: purchased Eurofins
Description: Eurofins kinase enzymatic radiometric assay, CK1γ2. It is filed as biochemical. As to conditions: Km = ATP, 9-pt curve in duplicate.
From the text: as §1

Assay [3] has as its system β-catenin. As to the kind of experiment: W. blot of β-catenin stabilization after WNT3A in RKO cells. It is filed as cell-based, human. The following applies: RKO cells pretreated 1 h, WNT3A 30 or 60 min, compared with dimethyl sulfoxide control. The protocol:
Standard W. blot techniques were utilized and performed as previously described ([15], [43]). Briefly, cells were lysed in RIPA lysis buffer, flash frozen on dry ice, and then cleared at high speed for 10 min at maximum speed. Protein concentration was determined by a bicinchoninic acid assay following kit specifications. Samples were balanced, and NuPAGE 4× SDS loading buffer (Thermo Fisher Scientific; catalog no.: NP0007) containing DTT was added to each sample and heated for 10 min at 70 °C. Samples were run on a NuPAGE 4 to 12% Bis–Tris Protein Gel (Thermo Fisher Scientific; catalog no.: NP0321) and then transferred to a nitrocellulose membrane. The membrane was then blocked and incubated overnight with primary antibody at 4 °C with rotation, washed with Tris-buffered saline with Tween-20, incubated with secondary antibody, washed with Tris-buffered saline with Tween-20, and imaged. Images were taken using a LiCOR Odyssey CLx imager and quantified with LiCOR software (LiCOR Biosciences). All antibodies were used at a concentration of 1:1000, with the exception of loading controls, which were used at 1:10,000. […]

Assay [4] concerns the target T3, DYRK1B (Homo sapiens, UniProt Q9Y463).
T3 construct: purchased Eurofins DiscoverX Corporation
As to the kind of experiment: scanMAX binding assay, DYRK1B. The following applies: Percent of Control; legend and method: 1 μM; read-out: DYRK1B PoC @ 1 µM. From the text:
(§2) As described previously, this commercial assay platform screens against 403 WT human kinases in binding assays and provides PoC values ([73]).

The target of assay [5] is T4, CK1γ2 (NLuc-CK1γ2) (Homo sapiens, UniProt P78368).
T4 construct: host or cells: HEK293T
Description: NanoBRET cellular target engagement assay, NLuc-CK1γ2 in HEK293T cells. In kind it is cell-based. As to conditions: live HEK293T cells, 0.5 μM tracer K-10; read-out: NL-CK1γ2 NanoBRET IC50. The protocol:
HEK293T cells (hypotriploid, fetal) were purchased from ATCC. These cells were grown in Dulbecco’s modified Eagle’s medium (Gibco) supplemented with 10% (v/v) fetal bovine serum (Corning). They were incubated in 5% CO2 at 37 °C and passaged every 72 h with trypsin and not allowed to reach confluency. Constructs for NanoBRET measurements of CK1γ2 (NLuc-CK1γ2) and GSK3β (NLuc-GSK3β) were kindly provided by Promega. NanoBRET assays were carried out as described previously ([74]). Preferred NLuc orientations, both N-terminal in this case, are indicated in parentheses after each construct. Assays were carried out in dose–response as described by the manufacturer using 0.5 μM of tracer K-10 for CK1γ2 and 0.063 μM of tracer K-8 for GSK3β. Two biological replicates were executed with two technical replicates to produce the graphs with error bars shown in Figures 6E, 7E, 8, A and B. Tracer titration curves for these kinases that motivated our tracer selection and working concentration can be found on the Promega website.

In assay [6] the target is T1, CK1γ3. As to the kind of experiment: scanMAX binding assay, CK1γ3. The following applies: Percent of Control; legend and method: 1 μM; read-out: CK1γ3 PoC @ 1 µM.
From the text: as §2

Assay [7] deals with CSNK1D (Homo sapiens, UniProt P48730). Description: scanMAX binding assay, CSNK1D. The following applies: Percent of Control; legend and method: 1 μM; read-out: CSNK1D PoC @ 1 µM.
From the text: as §2

The target of assay [8] is T5, CSNK1E (Homo sapiens, UniProt P49674).
T5 construct: purchased Eurofins DiscoverX Corporation
As to the kind of experiment: scanMAX binding assay, CSNK1E. As to conditions: Percent of Control; legend and method: 1 μM; read-out: CSNK1E PoC @ 1 µM.
From the text: as §2

The target of assay [9] is T6, IRAK1 (Homo sapiens, UniProt P51617).
T6 construct: purchased Eurofins DiscoverX Corporation
As to the kind of experiment: scanMAX binding assay, IRAK1. As to conditions: Percent of Control; legend and method: 1 μM; read-out: IRAK1 PoC @ 1 µM.
From the text: as §2

Assay [10] addresses T7, CLK2 (Homo sapiens, UniProt P49760).
T7 construct: purchased Eurofins DiscoverX Corporation (scanMAX)
As to the kind of experiment: scanMAX binding assay, CLK2. As to conditions: Percent of Control; legend and method: 1 μM; read-out: CLK2 PoC @ 1 µM.
From the text: as §2

Assay [11] has as its target T8, GSK3β (Homo sapiens, UniProt P49841).
T8 construct: purchased Eurofins DiscoverX Corporation
As to the kind of experiment: scanMAX binding assay, GSK3β. As to conditions: Percent of Control; legend and method: 1 μM.
From the text: as §2

Assay [12] deals with T9, ADCK3 (Homo sapiens, UniProt Q8NI60).
T9 construct: purchased Eurofins DiscoverX Corporation (scanMAX)
As to the kind of experiment: scanMAX binding assay, ADCK3. As to conditions: Percent of Control; legend and method: 1 μM; read-out: ADCK3 PoC @ 1 µM.
From the text: as §2

For assay [13], the target named is CSNK1A1 (Homo sapiens, UniProt P48729). As to the kind of experiment: scanMAX binding assay, CSNK1A1. The following applies: Percent of Control; legend and method: 1 μM; read-out: CSNK1A1 PoC @ 1 µM.
From the text: as §2

Consider one compound from publication PMC9157009, “Protein proximity networks and functional evaluation of the casein kinase 1 gamma family reveal unique roles for CK1γ3 in WNT signaling” (The Journal of Biological Chemistry, 2022).

Several values for one entry are separate records, joined by “and”; a condition that tells them apart may be missing. Equal entries are not always repeated.

T1 sequence (Q9Y6M4 whole entry): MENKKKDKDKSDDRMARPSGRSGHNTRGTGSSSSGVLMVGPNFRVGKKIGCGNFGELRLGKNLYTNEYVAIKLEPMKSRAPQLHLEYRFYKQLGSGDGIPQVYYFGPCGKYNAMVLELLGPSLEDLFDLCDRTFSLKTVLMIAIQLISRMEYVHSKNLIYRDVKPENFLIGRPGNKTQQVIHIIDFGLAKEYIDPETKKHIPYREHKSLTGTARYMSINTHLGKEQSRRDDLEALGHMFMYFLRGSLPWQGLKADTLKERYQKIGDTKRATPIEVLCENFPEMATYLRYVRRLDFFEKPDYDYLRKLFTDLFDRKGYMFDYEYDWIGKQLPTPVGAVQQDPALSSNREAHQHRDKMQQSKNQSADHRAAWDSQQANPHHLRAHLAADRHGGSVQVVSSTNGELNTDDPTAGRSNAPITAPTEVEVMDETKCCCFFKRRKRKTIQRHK
T2 sequence (P78368 whole entry): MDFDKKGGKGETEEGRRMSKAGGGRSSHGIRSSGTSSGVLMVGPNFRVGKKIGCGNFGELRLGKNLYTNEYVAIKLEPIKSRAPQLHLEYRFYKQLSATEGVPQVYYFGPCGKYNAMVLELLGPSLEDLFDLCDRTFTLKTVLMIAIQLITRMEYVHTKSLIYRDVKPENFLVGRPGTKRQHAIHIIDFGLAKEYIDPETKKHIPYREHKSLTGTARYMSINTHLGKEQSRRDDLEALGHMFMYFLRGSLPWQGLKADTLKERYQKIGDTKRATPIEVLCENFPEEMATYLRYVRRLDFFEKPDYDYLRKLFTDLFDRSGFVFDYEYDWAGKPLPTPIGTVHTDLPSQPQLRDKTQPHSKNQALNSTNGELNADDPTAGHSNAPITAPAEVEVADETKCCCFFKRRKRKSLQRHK
T7 sequence (P49760 whole entry): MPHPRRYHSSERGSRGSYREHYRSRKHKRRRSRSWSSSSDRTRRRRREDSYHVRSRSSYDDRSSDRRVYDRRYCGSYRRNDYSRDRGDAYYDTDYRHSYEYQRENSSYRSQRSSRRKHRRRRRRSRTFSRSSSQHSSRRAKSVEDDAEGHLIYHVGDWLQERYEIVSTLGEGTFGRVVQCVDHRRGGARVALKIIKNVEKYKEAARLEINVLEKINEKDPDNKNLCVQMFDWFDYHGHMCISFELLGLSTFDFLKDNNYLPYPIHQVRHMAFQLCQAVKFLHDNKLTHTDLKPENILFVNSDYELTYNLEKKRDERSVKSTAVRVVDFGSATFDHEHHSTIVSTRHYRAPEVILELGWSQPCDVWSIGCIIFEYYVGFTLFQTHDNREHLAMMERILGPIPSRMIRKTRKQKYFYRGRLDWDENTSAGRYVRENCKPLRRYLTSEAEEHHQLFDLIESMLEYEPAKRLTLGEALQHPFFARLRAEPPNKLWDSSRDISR
T4 sequence (P78368 whole entry): as the sequence (P78368 whole entry) above
T5 sequence (P49674 whole entry): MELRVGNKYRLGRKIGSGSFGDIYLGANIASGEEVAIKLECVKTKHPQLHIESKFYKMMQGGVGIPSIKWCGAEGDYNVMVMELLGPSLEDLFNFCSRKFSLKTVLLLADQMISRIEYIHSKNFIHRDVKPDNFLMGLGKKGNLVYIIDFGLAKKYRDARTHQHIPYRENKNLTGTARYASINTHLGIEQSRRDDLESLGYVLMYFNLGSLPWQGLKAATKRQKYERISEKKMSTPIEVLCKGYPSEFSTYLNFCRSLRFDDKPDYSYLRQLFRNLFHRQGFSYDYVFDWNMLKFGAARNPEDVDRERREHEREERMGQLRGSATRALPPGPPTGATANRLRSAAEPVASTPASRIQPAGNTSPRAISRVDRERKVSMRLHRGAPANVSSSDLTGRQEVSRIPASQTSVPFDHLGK
T3 sequence (Q9Y463 whole entry): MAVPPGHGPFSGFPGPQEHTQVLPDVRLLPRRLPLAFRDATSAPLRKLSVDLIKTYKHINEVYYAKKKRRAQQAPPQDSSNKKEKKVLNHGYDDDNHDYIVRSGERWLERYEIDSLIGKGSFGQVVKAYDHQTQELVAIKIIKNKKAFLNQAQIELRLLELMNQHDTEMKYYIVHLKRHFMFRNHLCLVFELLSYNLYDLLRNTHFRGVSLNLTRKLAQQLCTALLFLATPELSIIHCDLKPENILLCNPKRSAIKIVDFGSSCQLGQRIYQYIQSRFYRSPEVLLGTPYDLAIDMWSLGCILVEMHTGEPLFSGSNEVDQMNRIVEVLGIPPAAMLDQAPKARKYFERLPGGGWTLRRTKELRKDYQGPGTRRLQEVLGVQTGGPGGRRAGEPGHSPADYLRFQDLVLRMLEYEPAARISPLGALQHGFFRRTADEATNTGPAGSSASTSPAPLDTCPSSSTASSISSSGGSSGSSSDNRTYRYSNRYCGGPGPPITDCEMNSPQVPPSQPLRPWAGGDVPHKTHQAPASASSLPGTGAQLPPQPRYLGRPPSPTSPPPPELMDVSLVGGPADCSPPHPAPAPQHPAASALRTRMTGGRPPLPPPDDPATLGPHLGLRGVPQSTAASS
Sequence of CSNK1A1 (P48729 whole entry): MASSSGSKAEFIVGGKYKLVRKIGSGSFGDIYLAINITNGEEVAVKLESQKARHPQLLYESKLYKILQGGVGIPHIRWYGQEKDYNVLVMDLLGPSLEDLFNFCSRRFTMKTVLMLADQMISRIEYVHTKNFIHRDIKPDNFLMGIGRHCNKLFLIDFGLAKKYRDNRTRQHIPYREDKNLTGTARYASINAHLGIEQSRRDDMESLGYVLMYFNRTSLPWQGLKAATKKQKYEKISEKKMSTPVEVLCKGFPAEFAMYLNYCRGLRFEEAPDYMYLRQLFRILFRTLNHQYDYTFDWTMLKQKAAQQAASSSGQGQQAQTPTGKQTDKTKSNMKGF
T6 sequence (P51617 whole entry): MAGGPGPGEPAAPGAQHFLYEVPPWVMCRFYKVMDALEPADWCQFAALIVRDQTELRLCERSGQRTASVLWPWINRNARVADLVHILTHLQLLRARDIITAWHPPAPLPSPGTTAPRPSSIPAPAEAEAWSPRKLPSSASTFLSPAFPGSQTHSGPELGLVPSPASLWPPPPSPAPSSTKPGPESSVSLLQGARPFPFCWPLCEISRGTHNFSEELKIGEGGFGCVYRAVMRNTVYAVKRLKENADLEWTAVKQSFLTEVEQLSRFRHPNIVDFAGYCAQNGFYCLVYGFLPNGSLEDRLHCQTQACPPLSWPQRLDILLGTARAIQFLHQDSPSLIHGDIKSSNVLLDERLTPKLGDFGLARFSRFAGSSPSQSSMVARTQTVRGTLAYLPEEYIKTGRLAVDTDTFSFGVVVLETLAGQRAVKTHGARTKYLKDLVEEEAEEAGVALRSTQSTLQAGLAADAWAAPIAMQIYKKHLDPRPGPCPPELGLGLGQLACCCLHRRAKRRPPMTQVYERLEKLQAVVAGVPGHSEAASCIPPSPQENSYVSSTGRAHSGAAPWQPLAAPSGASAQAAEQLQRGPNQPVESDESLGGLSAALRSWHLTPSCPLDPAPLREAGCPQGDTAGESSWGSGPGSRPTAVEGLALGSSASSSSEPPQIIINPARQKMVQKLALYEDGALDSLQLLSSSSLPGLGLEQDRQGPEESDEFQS
T8 sequence (P49841 whole entry): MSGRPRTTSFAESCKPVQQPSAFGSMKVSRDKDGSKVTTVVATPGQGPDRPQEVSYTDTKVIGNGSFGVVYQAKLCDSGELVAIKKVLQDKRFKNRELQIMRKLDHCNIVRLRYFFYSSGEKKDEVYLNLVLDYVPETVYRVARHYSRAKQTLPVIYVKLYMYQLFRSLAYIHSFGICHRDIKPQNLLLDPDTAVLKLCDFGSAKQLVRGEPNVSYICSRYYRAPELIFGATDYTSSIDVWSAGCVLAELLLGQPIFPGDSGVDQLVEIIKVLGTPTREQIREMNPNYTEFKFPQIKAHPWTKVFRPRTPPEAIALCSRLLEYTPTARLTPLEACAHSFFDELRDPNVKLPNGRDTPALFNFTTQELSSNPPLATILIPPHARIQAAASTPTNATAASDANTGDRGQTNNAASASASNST
Sequence of CSNK1D (P48730 whole entry): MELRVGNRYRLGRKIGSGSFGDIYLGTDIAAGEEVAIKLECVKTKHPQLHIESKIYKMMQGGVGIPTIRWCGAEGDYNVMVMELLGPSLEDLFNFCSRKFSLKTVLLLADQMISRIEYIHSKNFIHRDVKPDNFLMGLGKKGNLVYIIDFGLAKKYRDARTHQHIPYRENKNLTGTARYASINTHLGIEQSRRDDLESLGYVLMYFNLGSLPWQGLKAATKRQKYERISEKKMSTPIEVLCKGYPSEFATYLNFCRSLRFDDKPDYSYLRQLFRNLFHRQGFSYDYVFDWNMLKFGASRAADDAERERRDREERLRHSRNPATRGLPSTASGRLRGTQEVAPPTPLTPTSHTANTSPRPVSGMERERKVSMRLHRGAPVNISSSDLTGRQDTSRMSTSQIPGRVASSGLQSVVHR

A word on the IC50: it is the concentration needed to halve the response being measured. `COc1cnc(COc2ccc(F)c(F)c2)cc1-c1cc2c([nH]1)CCNC2=O` [FP1-24-2, 2-(2-((3,4-difluorophenoxy)methyl)-5-methoxypyridin-4-yl)-1,5,6,7-tetrahydro-4H-pyrrolo[3,2-c]pyridin-4-one]: the IC50 in assay [1] was < 15 nM and 14 nM; in assay [2], < 15 nM and 2.22 nM; in assay [5] it was 10.7 nM. In addition, in assay [3], the β-catenin stabilization result was “diminished”. Besides, the remaining binding at 1 µM is 7.1% in assay [4]; 0.9% in [6]; 0% in assay [7]; 0.3% in assay [8]; 1.1% in [9]; 7.2% in assay [10]. The remaining binding at 1 µM in assay [12] came to 5.4%; in assay [13], 3.1%. Further, the “GSK3β PoC @ 1 µM” value in [11] is on record as “did not inhibit”.
